Measured values reported in PubChem BioAssay (NCI).
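Following 48 hours of exposure in 96-well plates, responses at five concentrations were used to interpolate endpoints linearly. Abbreviation: GI50, concentration required for 50% inhibition of growth. TGI denotes the concentration required for complete inhibition of growth.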

Tests used:
Assay in all cases: NCI tumour cell line growth inhibition, 48 h
[1] = tested on: LOX IMVI melanoma
[2] = tested on: MCF7 breast
[3] = tested on: NCI/ADR-RES ovarian
[4] = tested on: NCI-H226 lung
[5] = tested on: HOP-92 NSCLC
[6] = tested on: U251 CNS
[7] = tested on: 786-0 renal
[8] = tested on: DU-145 prostate
[9] = tested on: MOLT-4 leukemia
[10] = tested on: HT29 colon
[11] = tested on: HCT-15 colon
[12] = tested on: EKVX NSCLC
[13] = tested on: SW-620 colon
[14] = tested on: OVCAR-4 ovarian
[15] = tested on: CAKI-1 renal
[16] = tested on: COLO 205 colon
[17] = tested on: SN12C renal
[18] = tested on: HCT-116 colon
[19] = tested on: SK-MEL-2 melanoma
[20] = tested on: NCI-H460 lung
[21] = tested on: HCC-2998 colon
[22] = tested on: PC-3 prostate
[23] = tested on: HL-60(TB) leukemia
[24] = tested on: MDA-MB-231 breast
[25] = tested on: ACHN renal
[26] = tested on: BT-549 breast
[27] = tested on: UACC-257 melanoma
[28] = tested on: T-47D breast
[29] = tested on: OVCAR-3 ovarian
[30] = tested on: RXF 393 renal
[31] = tested on: SF-295 CNS
[32] = tested on: SK-MEL-28 melanoma
[33] = tested on: OVCAR-8 ovarian
[34] = tested on: SK-MEL-5 melanoma
[35] = tested on: UACC-62 melanoma
[36] = tested on: HOP-62 NSCLC
[37] = tested on: SNB-75 CNS
[38] = tested on: MALME-3M melanoma
[39] = tested on: MDA-MB-435
[40] = tested on: RPMI-8226 leukemia
[41] = tested on: SR leukemia
[42] = tested on: IGROV1 ovarian
[43] = tested on: UO-31 renal
[44] = tested on: OVCAR-5 ovarian
[45] = tested on: CCRF-CEM leukemia
[46] = tested on: SF-539 CNS
[47] = tested on: A498 renal
[48] = tested on: A549 NSCLC
[49] = tested on: NCI-H522 lung
[50] = tested on: SK-OV-3 ovarian
[51] = tested on: K-562 leukemia
[52] = tested on: HS 578T breast
[53] = tested on: SF-268 CNS
[54] = tested on: M14 melanoma
[55] = tested on: KM12 colon
[56] = tested on: SNB-19 CNS
[57] = tested on: TK-10 renal

O=C1Nc2cc(Cl)ccc2/C1=C\c1ccc(OCc2ccc(Br)cc2F)cc1
GI50 [1]: 1.49 µM
TGI [1]: 2.88 µM
GI50 [2]: 1.25 µM
TGI [2]: 15.2 µM
GI50 [3]: 2.31 µM
TGI [3]: 6 µM
GI50 [4]: 2.19 µM
TGI [4]: 6.89 µM
GI50 [5]: 1.22 µM
TGI [5]: 3.85 µM
GI50 [6]: 1.69 µM
TGI [6]: 3.21 µM
GI50 [7]: 1.98 µM
TGI [7]: 3.66 µM
GI50 [8]: 2.93 µM
TGI [8]: > 100 µM
GI50 [9]: 3.57 µM
TGI [9]: 26.1 µM
GI50 [10]: 2.37 µM
TGI [10]: 6.4 µM
GI50 [11]: 3.55 µM
TGI [11]: 50.1 µM
GI50 [12]: 3.85 µM
TGI [12]: 18 µM
GI50 [13]: 1.9 µM
TGI [13]: 4.56 µM
GI50 [14]: 1.84 µM
TGI [14]: 3.71 µM
GI50 [15]: 1.67 µM
TGI [15]: 3.35 µM
GI50 [16]: 2.58 µM
TGI [16]: 12.4 µM
GI50 [17]: 1.86 µM
TGI [17]: 4.09 µM
GI50 [18]: 1.38 µM
TGI [18]: 2.87 µM
GI50 [19]: 2.97 µM
TGI [19]: 9.98 µM
GI50 [20]: 0.459 µM
TGI [20]: 1.7 µM
GI50 [21]: 4.14 µM
TGI [21]: 37.4 µM
GI50 [22]: 1.7 µM
TGI [22]: 3.49 µM
GI50 [23]: 53 µM
TGI [23]: > 100 µM
GI50 [24]: 2.2 µM
TGI [24]: 5.34 µM
GI50 [25]: 1.83 µM
TGI [25]: 4.04 µM
GI50 [26]: 2.1 µM
TGI [26]: 4.69 µM
GI50 [27]: 3.3 µM
TGI [27]: 18.4 µM
GI50 [28]: 2.3 µM
TGI [28]: 6.6 µM
GI50 [29]: 2.08 µM
TGI [29]: 4.72 µM
GI50 [30]: 1.65 µM
TGI [30]: 3.2 µM
GI50 [31]: 1.89 µM
TGI [31]: 3.5 µM
GI50 [32]: 2.84 µM
TGI [32]: 8.37 µM
GI50 [33]: 2.46 µM
TGI [33]: 6.89 µM
GI50 [34]: 5.53 µM
TGI [34]: 82.4 µM
GI50 [35]: 1.68 µM
TGI [35]: 3.35 µM
GI50 [36]: 1.79 µM
TGI [36]: 3.76 µM
GI50 [37]: 1.81 µM
TGI [37]: 3.39 µM
GI50 [38]: 1.97 µM
TGI [38]: 4.27 µM
GI50 [39]: 2.26 µM
TGI [39]: 5.38 µM
GI50 [40]: 3.71 µM
TGI [40]: > 100 µM
GI50 [41]: 2.59 µM
TGI [41]: 8.18 µM
GI50 [42]: 2.07 µM
TGI [42]: 5.13 µM
GI50 [43]: 1.49 µM
TGI [43]: 4.75 µM
GI50 [44]: 4.16 µM
TGI [44]: > 100 µM
GI50 [45]: 3.74 µM
TGI [45]: 22 µM
GI50 [46]: 1.66 µM
TGI [46]: 3.18 µM
GI50 [47]: 2.5 µM
TGI [47]: 5.95 µM
GI50 [48]: 2.04 µM
TGI [48]: 4.62 µM
GI50 [49]: 1.8 µM
TGI [49]: 4.33 µM
GI50 [50]: 1.69 µM
TGI [50]: 3.33 µM
GI50 [51]: 3.3 µM
TGI [51]: > 100 µM
GI50 [52]: 1.91 µM
TGI [52]: 6.2 µM
GI50 [53]: 2.29 µM
TGI [53]: 6.34 µM
GI50 [54]: 2.27 µM
TGI [54]: 6.69 µM
GI50 [55]: 3.12 µM
TGI [55]: 73.7 µM
GI50 [56]: 1.92 µM
TGI [56]: 4.29 µM
GI50 [57]: 2.51 µM
TGI [57]: 4.59 µM
